Results reported in patent US20160192626A1, “Method For Creating Endometriotic Cells And Endometriosis Model Animal” (KYOTO UNIVERSITY, priority 2013, published 2016).

Tested on: endometriotic-like cells
Experiment: Estrogen (E2) production ability of endometriotic-like cells from androgens of adrenal origin, Estradiol EIA
Type: cell-based, human
Settings: final concentration 1 mM, 48 hours, cells produced in the step (3)
Experimental: In this Experimental Example, the cells produced in the step (3) were confirmed for their ability to produce estradiol (E2), which was an estrogen. The cells (1×10^5 cells) produced in the step (3) were added to 1 ml of a low-carbon-source proliferation culture medium supplemented with bovine serum albumin (BSA) at 0.1% (v/v) in place of FBS, inoculated into a 12-well plate having a surface coated with collagen type I (derived from rat tail, BD Biosciences, Cat. No. 354236), and cultured for 24 hours at 37° C. in the presence of 5% CO2.
After that, A-dione (Tokyo Chemical Industry Co., Ltd.; androstenedione), DHEA (Tokyo Chemical Industry Co., Ltd.), or DHEA-sulfate (Tokyo Chemical Industry Co., Ltd.; DHEA-S, inactivated adrenal androgen), which was an androgen of adrenal origin, was added to the culture medium so that the final concentration became 1 mM, and the cells were further cultured for 48 hours. As a control (vehicle), the cells were cultured in the same manner as described above except that dimethylsulfoxide (DMSO), which was a solvent, was added in place of the androgen.
The concentration of E2 in the culture supernatant was measured by using Estradiol EIA kit (Cayman Chemical, Cat. No. 582251) according to the manual of the kit.

## C[C@]12CC[C@H](O)CC1=CC[C@@H]1[C@@H]2CC[C@]2(C)C(=O)CC[C@@H]12 [DHEA, dehydoepiandorosterone]
  E2 production from the added androgen (concentration of E2 in the culture supernatant): produced E2

## C[C@]12CCC(=O)C=C1CC[C@@H]1[C@@H]2CC[C@]2(C)C(=O)CC[C@@H]12 [A-dione, androstenedione]
  E2 production from the added androgen (concentration of E2 in the culture supernatant): produced E2

## C[C@]12CC[C@H](OS(=O)(=O)O)CC1=CC[C@@H]1[C@@H]2CC[C@]2(C)C(=O)CC[C@@H]12 [DHEA-S, DHEA-sulfate]
  E2 production from the added androgen (concentration of E2 in the culture supernatant): did not produce E2
